What is called IC50 is the point on the concentration scale where inhibition reaches its midpoint. A word on the Km: it is the concentration of substrate that gives half-maximal velocity. Usually kcat stands for the number of substrate molecules converted per active site and unit of time at saturation.

The record followed here is publication PMC5365654, “Cyclic Boronates Inhibit All Classes of β-Lactamases” (Antimicrobial Agents and Chemotherapy, 2017).

Read-outs that look alike come from different tables or passages of the source.

The target in assay [1] is T1, VIM-1 (Pseudomonas aeruginosa, UniProt A0A0F7KYQ8).
T1 construct: His tag (3C-cleavable) (C, cleaved yes); made in house
Description: FC5 fluorogenic metallo-β-lactamase inhibition assay, VIM-1. Conditions: pH 7.5, FC5 substrate, read-out: IC50, μM (mean ± SD) for VIM-1, pH 7.5. Type of assay: biochemical. The text has this:
(§1) To investigate the extent to which cyclic boronates inhibit class C β-lactamases as well as the important class A ESBL and class D carbapenemase targets, we used a fluorogenic assay ([22]) to screen the cyclic boronates, which we have found to inhibit other β-lactamases ([21]), against them. The β-lactamases used for screening included TEM-1 and CTX-M-15 (class A), the metallo-β-lactamase (MBL) from Bacillus cereus (BcII), Verona integron-encoded metallo-β-lactamase 1 (VIM-1) (class B), AmpC from P. aeruginosa (class C), and OXA-23 and OXA-48 (class D), collectively representing all classes of β-lactamase.
(§2) We also screened the cyclic boronates against the model MBL, BcII, and VIM-1 using the FC5-based fluorogenic assay ([22]).
(§3) Inhibition assays were carried out using FC5 as a fluorogenic reporter substrate ([22]). Enzyme concentrations and buffers were the same as those employed in steady-state kinetic studies (see Table S2 in the supplemental material). […] The concentration of FC5 employed was 10 μM for TEM-1 and 5 μM for all other enzymes. […] Data at 0 min of incubation were obtained by addition of enzyme to a premixed solution of inhibitor and substrate. Residual enzyme activity was determined for a range of inhibitor concentrations. Nonlinear regression fitting of IC50 curves was carried out using a three-parameter dose-response curve in GraphPad Prism. Errors in IC50 are expressed as [σ(log IC50)/log IC50)] × IC50.
(§4) 45 Steady-state kinetics studies used a Pherastar FS microplate reader with UV-STAR® 96-well,
(§5) 47 black, µclear® plates (Greiner Bio-One) for FC5 (1). […]
(§6) 51 1 µM ZnSO4, 0.01% Triton X-100 for MBL assays. Reaction progress was monitored at 298 K
(§7) 53 intensity (λex = 380 nm, λem = 480 nm) for FC5 (1). Suitable enzyme concentrations for
(§8) 54 kinetic analysis were determined by monitoring changes in absorbance/fluorescence for
(§9) 55 enzyme concentrations between 20 nM and 20 pM. […]

Assay [2] has as its target BcII (Bacillus cereus, UniProt P04190). Description: FC5 fluorogenic metallo-β-lactamase inhibition assay, BcII. In kind it is biochemical. Conditions: FC5 substrate.
From the text: as §1, §2, §3, §4, §5, §6, §7, §8, §9

Assay [3] addresses T2, CTX-M-15 (Escherichia coli, UniProt Q9EXV5).
T2 construct: hexahistidine (pOPINF, 3C-cleavable) (N, cleaved yes); made in house; host or cells: E. coli BL21(DE3)
Type of assay: biochemical, E. coli. Conditions: CTX-M-15-catalysed hydrolysis of the substrate. The protocol:
as §4
(§10) 47 black, µclear® plates (Greiner Bio-One) for FC5 (1). Buffers employed were 100 mM
(§11) 48 phosphate buffer pH 7.5, 0.01% (v/v) Triton X-100 for TEM-1, CTX-M-15 and AmpC, 100 mM
(§12) 49 phosphate buffer pH 7.5, 50 mM sodium bicarbonate, 0.01% Triton X-100 for OXA-23 and
as §6, §7, §8
(§13) 55 enzyme concentrations between 20 nM and 20 pM.
(§14) Kinetic constants were determined using the initial rate of hydrolysis with the
(§15) 57 reaction initiated through the addition of enzyme to pre-prepared substrate concentrations.
(§16) 58 Substrate concentrations ranged between 400 µM and 0.4 µM. The Michaelis-Menten
(§17) 59 equation was fitted to data by non-linear regression using GraphPad Prism software to
(§18) 60 calculate the Michaelis-Menten constant and the limiting rate (2).

In assay [4] the target is T3, OXA-23 (Acinetobacter baumannii, UniProt Q9L4P2).
T3 construct: hexahistidine (pOPINF, 3C-cleavable) (N, cleaved yes); made in house; host or cells: E. coli BL21(DE3)
Type of assay: biochemical. The note with it: OXA-23-catalysed hydrolysis of the substrate. The protocol: as §4, §10, §11, §12, §6, §7, §8, §13, §14, §15, §16, §17, §18

Assay [5] deals with T4, OXA-48 (Klebsiella pneumoniae, UniProt Q6XEC0).
T4 construct: hexahistidine (pOPINF, 3C-cleavable) (N, cleaved yes); made in house; host or cells: E. coli BL21(DE3)
In kind it is biochemical. The note with it: OXA-48-catalysed hydrolysis of the substrate. The method, then:
as §4, §10, §11, §12, §6, §7, §8, §13, §14, §15, §16, §17, §18

Assay [6] addresses T5, AmpC (Pseudomonas aeruginosa, UniProt P24735).
T5 construct: hexahistidine (pOPINF, 3C-cleavable) (N, cleaved yes); made in house; host or cells: E. coli BL21(DE3)
In kind it is biochemical. The note with it: AmpC-catalysed hydrolysis of the substrate. The protocol:
as §4, §10, §11, §12, §6, §7, §8, §13, §14, §15, §16, §17, §18

Assay [7] deals with T2, CTX-M-15. Description: FC5 fluorogenic β-lactamase inhibition assay, CTX-M-15. Type of assay: biochemical. The note with it: FC5 substrate.
From the text: as §1, §3, §4, §10, §11, §12, §6, §7, §8, §13, §14, §15, §16, §17, §18

The target in assay [8] is T4, OXA-48. Description: FC5 fluorogenic β-lactamase inhibition assay, OXA-48. Type of assay: biochemical.
From the text: as §1, §3, §4, §10, §11, §12, §6, §7, §8, §13, §14, §15, §16, §17, §18

Assay [9] concerns the target T3, OXA-23. Description: FC5 fluorogenic β-lactamase inhibition assay, OXA-23. In kind it is biochemical.
From the text: as §1, §3, §4, §10, §11, §12, §6, §7, §8, §13, §14, §15, §16, §17, §18

The target in assay [10] is T6, AmpC from P. aeruginosa (Pseudomonas aeruginosa, UniProt P24735).
T6 construct: hexahistidine (pOPINF, 3C-cleavable) (N, cleaved yes); made in house; host or cells: E. coli BL21(DE3)
Description: FC5 fluorogenic β-lactamase inhibition assay, AmpC. In kind it is biochemical. Conditions: IC50, nM (mean ± SD) for AmpC, FC5 substrate.
From the text: as §1, §3, §4, §10, §11, §12, §6, §7, §8, §13, §14, §15, §16, §17, §18

Sequence of BcII (P04190 31-257): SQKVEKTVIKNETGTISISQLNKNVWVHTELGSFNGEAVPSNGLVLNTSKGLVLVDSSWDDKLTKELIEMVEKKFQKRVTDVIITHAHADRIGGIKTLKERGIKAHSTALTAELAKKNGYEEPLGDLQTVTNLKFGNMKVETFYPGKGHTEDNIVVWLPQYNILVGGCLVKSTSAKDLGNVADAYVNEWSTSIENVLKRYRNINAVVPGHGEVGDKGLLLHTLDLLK
T3 sequence (Q9L4P2 18-273): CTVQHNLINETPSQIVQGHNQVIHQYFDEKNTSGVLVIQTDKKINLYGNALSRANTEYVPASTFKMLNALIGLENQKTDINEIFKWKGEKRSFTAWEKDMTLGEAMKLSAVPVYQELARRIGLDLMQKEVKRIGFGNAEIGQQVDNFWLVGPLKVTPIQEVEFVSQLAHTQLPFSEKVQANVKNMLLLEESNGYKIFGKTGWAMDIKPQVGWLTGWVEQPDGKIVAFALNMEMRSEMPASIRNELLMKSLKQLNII
T2 sequence (Q9EXV5 entry or part of it): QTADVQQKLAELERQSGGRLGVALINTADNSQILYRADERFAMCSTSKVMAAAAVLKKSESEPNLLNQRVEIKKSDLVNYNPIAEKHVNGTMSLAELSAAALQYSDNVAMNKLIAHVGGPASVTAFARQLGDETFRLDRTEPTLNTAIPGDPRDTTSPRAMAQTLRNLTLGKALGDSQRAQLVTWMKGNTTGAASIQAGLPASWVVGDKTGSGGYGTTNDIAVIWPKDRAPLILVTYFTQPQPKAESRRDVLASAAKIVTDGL
T6 sequence (P24735 27-397): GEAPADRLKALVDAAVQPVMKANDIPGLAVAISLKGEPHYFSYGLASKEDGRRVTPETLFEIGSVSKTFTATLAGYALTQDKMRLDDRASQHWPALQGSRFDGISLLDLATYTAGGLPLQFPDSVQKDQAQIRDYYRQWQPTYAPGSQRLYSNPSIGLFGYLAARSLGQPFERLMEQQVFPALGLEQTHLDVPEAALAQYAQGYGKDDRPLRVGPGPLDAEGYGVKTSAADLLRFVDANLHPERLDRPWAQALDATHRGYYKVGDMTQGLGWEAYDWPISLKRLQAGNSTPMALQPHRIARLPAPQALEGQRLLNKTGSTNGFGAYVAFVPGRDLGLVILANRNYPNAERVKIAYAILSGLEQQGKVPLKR
T4 sequence (Q6XEC0 23-265 limits assumed): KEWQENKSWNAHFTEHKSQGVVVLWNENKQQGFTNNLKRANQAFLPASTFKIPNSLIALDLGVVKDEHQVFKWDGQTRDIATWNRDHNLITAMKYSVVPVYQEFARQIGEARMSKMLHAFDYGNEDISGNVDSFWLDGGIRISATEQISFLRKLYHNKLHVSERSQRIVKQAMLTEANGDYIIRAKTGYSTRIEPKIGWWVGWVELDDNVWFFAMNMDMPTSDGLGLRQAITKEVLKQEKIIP
T5 sequence (P24735 27-397): as the sequence (P24735 27-397) above

Take `O=C(O)C(S)c1ccccc1` (racemic) [(±)-Thiomandelic acid, thiomandelic acid]: the IC50 in [1] (preincubation 0 min) worked out at 0.38 ± 0.03 µM; in assay [1] (preincubation 10 min), 0.45 ± 0.02 µM; in [1] (preincubation 30 min) it was 0.8 ± 0.9 µM; in [1] (preincubation 60 min), 1.4 ± 0.9 µM; in assay [1] (preincubation 360 min), 2 ± 1 µM; in assay [2] (pH 6.5, preincubation 0 min, read-out: IC50, μM (mean ± SD) for BcII, pH 6.5) it was 0.27 ± 0.06 µM. For the same compound, the IC50 in [2] (pH 6.5, preincubation 10 min, read-out: IC50, μM (mean ± SD) for BcII, pH 6.5) was found to be 0.9 ± 0.1 µM; in [2] (pH 6.5, preincubation 30 min, read-out: IC50, μM (mean ± SD) for BcII, pH 6.5), 0.5 ± 0.1 µM; in assay [2] (pH 6.5, preincubation 60 min, read-out: IC50, μM (mean ± SD) for BcII, pH 6.5), 2 ± 1 µM; in assay [2] (pH 6.5, preincubation 360 min, read-out: IC50, μM (mean ± SD) for BcII, pH 6.5), 2 ± 1 µM; in assay [2] (pH 7.5, preincubation 0 min, read-out: IC50, μM (mean ± SD) for BcII, pH 7.5) it was 0.3 ± 0.03 µM; in [2] (pH 7.5, preincubation 10 min, read-out: IC50, μM (mean ± SD) for BcII, pH 7.5), 0.39 ± 0.05 µM. For the same compound, the IC50 was 0.33 ± 0.04 µM in assay [2] (pH 7.5, preincubation 30 min, read-out: IC50, μM (mean ± SD) for BcII, pH 7.5); 0.5 ± 0.2 µM in assay [2] (pH 7.5, preincubation 60 min, read-out: IC50, μM (mean ± SD) for BcII, pH 7.5); 2 ± 1 µM in assay [2] (pH 7.5, preincubation 360 min, read-out: IC50, μM (mean ± SD) for BcII, pH 7.5).

In the case of `O=C(Cc1ccccc1)N[C@@H]1C(=O)N2C(C(=O)O)=C(COc3ccc4ccc(=O)oc4c3)CS(=O)(=O)[C@H]12` [FC5], the Km is 170 ± 20 µM in assay [3], 500 ± 130 µM in [4], 420 ± 50 µM in assay [5] and 600 ± 220 µM in assay [6]. The kcat was 1100 ± 100 s⁻¹ in [3], 38 ± 7 s⁻¹ in [4], 28 ± 2 s⁻¹ in assay [5] and 500 ± 160 s⁻¹ in assay [6].

Turning to `CC1(C)[C@H](C(=O)O)N2C(=O)C[C@H]2S1(=O)=O` [Sulbactam, sulbactam], the IC50 in assay [7] (IC50, nM (mean ± SD) for CTX-M-15, preincubation 0 min) is 44 ± 1 nM; in assay [7] (IC50, nM (mean ± SD) for CTX-M-15, preincubation 10 min), 29 ± 1 nM; in assay [7] (IC50, nM (mean ± SD) for CTX-M-15, preincubation 30 min) it was 28 ± 7 nM; in assay [7] (IC50, nM (mean ± SD) for CTX-M-15, preincubation 60 min), 32 ± 0.3 nM; in assay [7] (IC50, nM (mean ± SD) for CTX-M-15, preincubation 360 min), 16.6 ± 0.1 nM; in [8], over 200000 nM. Also, the IC50 is over 200000 nM in assay [8] (read-out: IC50, nM (mean ± SD) for OXA-48, preincubation 10 min, FC5 substrate); over 200000 nM in assay [8] (read-out: IC50, nM (mean ± SD) for OXA-48, preincubation 30 min, FC5 substrate); over 200000 nM in assay [8] (read-out: IC50, nM (mean ± SD) for OXA-48, preincubation 60 min, FC5 substrate); over 200000 nM in [8] (read-out: IC50, nM (mean ± SD) for OXA-48, preincubation 360 min, FC5 substrate); over 200000 nM in assay [9]; over 200000 nM in assay [9] (read-out: IC50, nM (mean ± SD) for OXA-23, preincubation 10 min, FC5 substrate). For the same compound, the IC50 is over 200000 nM in [9] (read-out: IC50, nM (mean ± SD) for OXA-23, preincubation 30 min, FC5 substrate); over 200000 nM in assay [9] (read-out: IC50, nM (mean ± SD) for OXA-23, preincubation 60 min, FC5 substrate); over 200000 nM in [9] (read-out: IC50, nM (mean ± SD) for OXA-23, preincubation 360 min, FC5 substrate); over 200000 nM in [10] (preincubation 0 min); 42000 nM in [10] (preincubation 10 min); 8600 nM in [10] (preincubation 30 min). Also, the IC50 in assay [10] (preincubation 60 min) was determined as 4400 nM; in assay [10] (preincubation 360 min) it was 1000 nM.
